The structures appear in SMILES notation. “And” between values parts separate entries of the source, which are not always exact repeats. Equal entries are not always repeated.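 Following 48 hours of exposure in 96-well plates, responses at five concentrations were used to interpolate endpoints linearly. The concentration for 50% growth inhibition is given as GI50. TGI denotes the concentration required for complete inhibition of growth.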

Among the test systems are 786-0 renal; EKVX NSCLC; K-562 leukemia; NCI-H23 lung; NCI-H522 lung; NCI/ADR-RES ovarian; OVCAR-5 ovarian; RXF 393 renal; SK-MEL-28 melanoma; SN12C renal.
What all share (assay): inhibition of tumour cell growth, NCI panel, 48 h

For `O=C1C(=O)c2ccccc2C(O)=C1CCCc1ccc(C2CCCCC2)cc1`, the GI50 is 3.73 µM with 786-0 renal; 3.22 µM with EKVX NSCLC; 3.28 µM in the test on K-562 leukemia; 4.14 µM with NCI-H23 lung; 7.69 µM in the test on NCI-H522 lung; 5.66 µM in the test with NCI/ADR-RES ovarian. In addition, the GI50 was 17 µM with OVCAR-5 ovarian, 11.5 µM in the test with RXF 393 renal, 8.54 µM in the test on SK-MEL-28 melanoma and 6.35 µM in the test on SN12C renal. Further, the TGI in the test on 786-0 renal was 43.5 µM; with EKVX NSCLC it was 20.9 µM; in the test with K-562 leukemia, more than 100 µM; in the test on NCI-H23 lung, 61.4 µM; with NCI-H522 lung, more than 100 µM; in the test on NCI/ADR-RES ovarian, 76.5 µM. In addition, the TGI in the test with OVCAR-5 ovarian is 42.2 µM; in the test on RXF 393 renal, 26.8 µM; in the test on SK-MEL-28 melanoma, 27.2 µM; in the test with SN12C renal, more than 100 µM.

Turning to `COC(=O)c1c2c(c(C)[n+]([O-])c1C)C(=O)C=C(NCc1cccc(Cl)c1)C2=O`, the GI50 in the test with 786-0 renal is 1.44 µM; in the test on EKVX NSCLC, 0.762 µM; with K-562 leukemia, 0.085 µM; in the test on NCI-H23 lung it was 0.463 µM; in the test on NCI-H522 lung, 0.261 µM; with NCI/ADR-RES ovarian, 0.307 µM. In addition, the GI50 in the test on OVCAR-5 ovarian is 1.18 µM; in the test with RXF 393 renal it was 1.2 µM; in the test on SK-MEL-28 melanoma, 0.716 µM; in the test on SN12C renal, 0.298 µM. In addition, the TGI in the test on 786-0 renal is 3.64 µM; in the test with EKVX NSCLC, 2.15 µM; with K-562 leukemia, more than 30.2 µM; in the test on NCI-H23 lung, 2.54 µM; with NCI-H522 lung it was 1.7 µM; in the test with NCI/ADR-RES ovarian, 1.79 µM. The TGI with OVCAR-5 ovarian was 2.57 µM; with RXF 393 renal it was 2.53 µM; in the test with SK-MEL-28 melanoma it was 2.09 µM; with SN12C renal, 1.02 µM.

For `O=c1oc2cc(OC/C(=N/O)c3ccc(F)cc3)ccc2c2ccccc12`, the GI50 in the test with 786-0 renal was 11.7 µM; with EKVX NSCLC it was 20.9 µM; with K-562 leukemia, 20.1 µM; in the test on NCI-H23 lung it was 19.1 µM; in the test on NCI-H522 lung, 17.5 µM; in the test with NCI/ADR-RES ovarian, 18 µM. Further, the GI50 is 19.4 µM in the test on OVCAR-5 ovarian, 14.7 µM in the test with RXF 393 renal, 20 µM with SK-MEL-28 melanoma and 20.1 µM with SN12C renal. Also, the TGI is 25 µM in the test on 786-0 renal; 42.5 µM in the test with EKVX NSCLC; 46.3 µM with K-562 leukemia; 34.2 µM in the test on NCI-H23 lung; 37 µM with NCI-H522 lung; 36.2 µM in the test on NCI/ADR-RES ovarian. Moreover, the TGI stood at 40 µM with OVCAR-5 ovarian, 32.5 µM in the test on RXF 393 renal, 37.2 µM with SK-MEL-28 melanoma and 37.3 µM with SN12C renal.

Turning to `C[C@]12CC[C@H]3[C@@H](CC4SC(N)=NC45C/C(=N/NC(N)=O)CC[C@]35C)[C@@H]1CCC2=O` (some centres not stated), the GI50 is 1.39 µM with 786-0 renal; 1.8 µM in the test on EKVX NSCLC; 1.81 µM in the test with K-562 leukemia; 1.78 µM with NCI-H23 lung; 1.93 µM in the test with NCI-H522 lung; 1.94 µM in the test on NCI/ADR-RES ovarian. The GI50 was 1.71 µM with OVCAR-5 ovarian, 1.61 µM with RXF 393 renal, 1.63 µM with SK-MEL-28 melanoma and 1.89 µM in the test with SN12C renal. In addition, the TGI in the test on 786-0 renal is 2.82 µM; in the test with EKVX NSCLC it was 3.63 µM; in the test on K-562 leukemia, 5.08 µM; in the test on NCI-H23 lung, 3.32 µM; in the test on NCI-H522 lung, 4.06 µM; in the test on NCI/ADR-RES ovarian, 3.87 µM. The TGI with OVCAR-5 ovarian turned out to be 3.19 µM; in the test with RXF 393 renal it was 3.23 µM; in the test on SK-MEL-28 melanoma, 3.1 µM; with SN12C renal, 3.45 µM.

As to `O=CN1N=C(c2cccc(Nc3ccnc4cc(Cl)ccc34)c2)CC1c1ccccc1` (configuration not stated), the GI50 is 0.543 µM in the test on 786-0 renal; 0.949 µM with EKVX NSCLC; 0.301 µM with K-562 leukemia; 0.551 µM in the test on NCI-H23 lung; 0.185 µM with NCI-H522 lung; 0.29 µM in the test with NCI/ADR-RES ovarian. For the same compound, the GI50 in the test on OVCAR-5 ovarian is 1.5 µM; in the test on RXF 393 renal, 0.336 µM; with SK-MEL-28 melanoma, 0.65 µM; in the test on SN12C renal, 0.617 µM. Further, the TGI with 786-0 renal was 18 µM; with EKVX NSCLC, more than 100 µM; in the test on K-562 leukemia it was 10.5 µM; in the test with NCI-H23 lung, more than 36.8 µM; in the test with NCI-H522 lung, 0.633 µM; in the test on NCI/ADR-RES ovarian, 1.17 µM. Also, the TGI is more than 100 µM in the test on OVCAR-5 ovarian, 3.58 µM with RXF 393 renal, 24.6 µM with SK-MEL-28 melanoma and more than 54.3 µM in the test on SN12C renal.

As for `CCCCCCCCCCCCCCCCOP(=O)([O-])OCC[N+](C)(C)C`, the GI50 in the test on 786-0 renal was 2.33 µM; in the test on EKVX NSCLC, 2.63 µM; in the test with NCI-H23 lung, 3.17 µM; with NCI-H522 lung it was 0.885 µM; in the test with NCI/ADR-RES ovarian, 11.1 µM; with OVCAR-5 ovarian, 0.735 µM. The results for the GI50 in the test on RXF 393 renal, in the test with SK-MEL-28 melanoma and with SN12C renal were 0.427 µM, 3.65 µM and 2.74 µM, respectively. In addition, the TGI is 7.76 µM and 25.4 µM with 786-0 renal; 11.1 µM and 58.6 µM with EKVX NSCLC; 64.9 µM in the test on K-562 leukemia; 13.3 µM and 65.3 µM in the test with NCI-H23 lung; 23.2 µM and 58.7 µM in the test on NCI/ADR-RES ovarian; 4.04 µM and 24.9 µM with OVCAR-5 ovarian. For the same compound, the TGI with SK-MEL-28 melanoma is 14.2 µM and 58.5 µM; with SN12C renal it was 10.7 µM and 56.6 µM.

As for `COc1cc(OC)c(OC)cc1/C=C/c1cnnc2ccccc12`, the TGI with 786-0 renal, with EKVX NSCLC, in the test with K-562 leukemia, in the test with NCI-H23 lung, with NCI-H522 lung and in the test on NCI/ADR-RES ovarian was more than 10 µM each time. Also, the TGI with OVCAR-5 ovarian, in the test with RXF 393 renal, with SK-MEL-28 melanoma and in the test with SN12C renal was more than 10 µM in each case.

On to `N#C/C(=N\Nc1ccccc1)C(=O)Nc1cc(-c2ccccc2)nn1-c1ccccc1`, for which the GI50 in the test on 786-0 renal is 3.04 µM; in the test on EKVX NSCLC, 2.93 µM; in the test with K-562 leukemia, 2.43 µM; with NCI-H23 lung, 2.73 µM; with NCI-H522 lung, 2.06 µM; with NCI/ADR-RES ovarian it was 2.83 µM. The GI50 was 3.39 µM in the test on OVCAR-5 ovarian, 2.26 µM in the test with RXF 393 renal, 3.78 µM in the test on SK-MEL-28 melanoma and 2.74 µM in the test with SN12C renal. For the same compound, the TGI with 786-0 renal was 16.3 µM; in the test on EKVX NSCLC, more than 100 µM; in the test with K-562 leukemia it was more than 100 µM; in the test on NCI-H23 lung it was 60.5 µM; with NCI-H522 lung, 12.6 µM; in the test with NCI/ADR-RES ovarian it was 30.2 µM. Also, the TGI is more than 100 µM in the test with OVCAR-5 ovarian, 7.69 µM in the test with RXF 393 renal, more than 100 µM with SK-MEL-28 melanoma and more than 100 µM in the test with SN12C renal.

For `CC(C)=CC(=O)N[C@H]1CC[C@]2(C)C3CC[C@]4(C)C(C(C)N(C)C)=CCC4C3CCC2[C@H]1O` (some centres not stated), the GI50 in the test on 786-0 renal is 2.85 µM; in the test with EKVX NSCLC, 6.38 µM; in the test on K-562 leukemia, 1.58 µM; in the test with NCI-H23 lung, 9.27 µM; with NCI-H522 lung, 5.61 µM; in the test on NCI/ADR-RES ovarian it was 10.3 µM. In addition, the GI50 in the test with OVCAR-5 ovarian is 10.9 µM; in the test on RXF 393 renal, 2.7 µM; with SK-MEL-28 melanoma it was 1.82 µM; in the test with SN12C renal, 5.27 µM. In addition, the TGI was determined as 9.23 µM in the test on 786-0 renal; 23.2 µM in the test on EKVX NSCLC; 4.52 µM with K-562 leukemia; 22.7 µM with NCI-H23 lung; 20.7 µM in the test with NCI-H522 lung; 25.5 µM in the test with NCI/ADR-RES ovarian. The TGI in the test on OVCAR-5 ovarian was found to be 25.2 µM; in the test with RXF 393 renal, 9.74 µM; in the test with SK-MEL-28 melanoma, 3.4 µM; in the test on SN12C renal it was 19.1 µM.
